The text below walks through data of PubChem BioAssay AID330 (DTP/NCI, 2004).

For the experiment, the system named is P388 leukemia ip, CD2F1 mice, survival T/C. In words: NCI In Vivo Anticancer Drug Screen. Data for tumor model P388 Leukemia (intraperitoneal) in CD2F1 (CDF1) mice. Conditions: endpoint: median survival time, higher = longer survival. The method in brief:
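Mice carrying the transplanted tumor received test compound or vehicle. Survival was recorded in each group, and the value is the treated-group measurement divided by that of the vehicle-treated control group.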

[1] abbreviates: dose: 50.0 mg/kg/injection, schedule: Q01DX009 (ip), vehicle: saline with Tween-80.
Setting [2] is: dose: 100.0 mg/kg/injection, schedule: Q01DX009 (ip), vehicle: saline with Tween-80.
The mark [3] stands for this setting: dose: 12.5 mg/kg/injection, schedule: Q01DX009 (ip), vehicle: Klucel (hydroxypropylcellulose) (HPC).
The mark [4] stands for this setting: dose: 25.0 mg/kg/injection, schedule: Q01DX009 (ip), vehicle: Klucel (hydroxypropylcellulose) (HPC).
[5] abbreviates: dose: 50.0 mg/kg/injection, schedule: Q01DX009 (ip), vehicle: saline.
The mark [6] stands for this setting: dose: 100.0 mg/kg/injection, schedule: Q01DX009 (ip), vehicle: saline.
The mark [7] stands for this setting: dose: 100.0 mg/kg/injection, schedule: Q01DX005 (ip), vehicle: saline with Tween-80.
Setting [8] is: dose: 200.0 mg/kg/injection, schedule: Q01DX005 (ip), vehicle: saline with Tween-80.
Where [9] appears, read: dose: 60.0 mg/kg/injection, schedule: Q01DX005 (ip), vehicle: saline with Tween-80.
Where [10] appears, read: dose: 120.0 mg/kg/injection, schedule: Q01DX005 (ip), vehicle: saline with Tween-80.
Setting [11] is: dose: 50.0 mg/kg/injection, schedule: Q01DX005 (ip), vehicle: saline with Tween-80.

Structures are written as SMILES. “And” between values parts separate entries of the source, which are not always exact repeats. Identical values can stand only once. Toxic doses and inconclusive results are not listed.

Consider `CC(=O)O[C@@H]1C[C@H](O)[C@@]23COC(O)[C@H]1[C@@H]2C[C@@H](O)[C@@]1(C)C2C(=O)C[C@@H](c4ccoc4)[C@]2(C)CC[C@@H]13` (stereo partly drawn), for which the T/C (dose: 2.4 mg/kg/injection, schedule: Q01DX009 (ip), vehicle: Klucel (hydroxypropylcellulose) (HPC)) is 99 % of control; the T/C (dose: 18.75 micrograms/kg/injection, schedule: Q01DX009 (ip), vehicle: Klucel (hydroxypropylcellulose) (HPC)) is 107 % of control; the T/C (dose: 37.5 micrograms/kg/injection, schedule: Q01DX009 (ip), vehicle: Klucel (hydroxypropylcellulose) (HPC)) is 117 % of control; the T/C (dose: 75.0 micrograms/kg/injection, schedule: Q01DX009 (ip), vehicle: Klucel (hydroxypropylcellulose) (HPC)) is 96 % of control; the T/C (dose: 150.0 micrograms/kg/injection, schedule: Q01DX009 (ip), vehicle: Klucel (hydroxypropylcellulose) (HPC)) was 101 % of control.

Consider `Cc1cn(C)c2c1-c1oncc1CC2`, for which the T/C reads like this: (dose: 100.0 mg/kg/injection, schedule: Q04DX003 (ip), vehicle: Klucel (hydroxypropylcellulose) (HPC)) 100 % of control; (dose: 200.0 mg/kg/injection, schedule: Q04DX003 (ip), vehicle: Klucel (hydroxypropylcellulose) (HPC)) 100 % of control; (dose: 400.0 mg/kg/injection, schedule: Q04DX003 (ip), vehicle: Klucel (hydroxypropylcellulose) (HPC)) 100 % of control.

`ClCC1CSC2(CCCCC2)O1` (stereo not drawn): the T/C was 104 % of control and 115 % of control under setting [1]; 100 % of control and 119 % of control under setting [2]; 97 % of control (dose: 200.0 mg/kg/injection, schedule: Q01DX009 (ip), vehicle: saline with Tween-80).

For `C=CCc1ccc(Oc2cc(CC=C)cc(O)c2O)cc1`, the T/C is 101 % of control (dose: 25.0 mg/kg/injection, schedule: Q01DX005 (ip), vehicle: Klucel + Tween-80); 104 % of control (dose: 50.0 mg/kg/injection, schedule: Q01DX005 (ip), vehicle: Klucel + Tween-80); 106 % of control (dose: 100.0 mg/kg/injection, schedule: Q01DX005 (ip), vehicle: Klucel + Tween-80); 113 % of control (dose: 200.0 mg/kg/injection, schedule: Q01DX005 (ip), vehicle: Klucel + Tween-80).

Consider `COC(=O)C1=CC[C@@H]2C(C(=O)O)=CO[C@@H](OC3OC(CO)C(O)C(O)C3O)[C@H]12` (stereo partly drawn), for which the T/C (dose: 2.8 mg/kg/injection, schedule: Q01DX005 (ip), vehicle: saline + alcohol) is 101 % of control; the T/C (dose: 5.5 mg/kg/injection, schedule: Q01DX005 (ip), vehicle: saline + alcohol) is 99 % of control; the T/C (dose: 11.0 mg/kg/injection, schedule: Q01DX005 (ip), vehicle: saline + alcohol) was 108 % of control; the T/C (dose: 22.0 mg/kg/injection, schedule: Q01DX005 (ip), vehicle: saline + alcohol) is 100 % of control.

For `Cc1ccc(N)c(S)c1`, the T/C runs as follows: under setting [3], 98 % of control; under setting [4], 120 % of control; (dose: 50.0 mg/kg/injection, schedule: Q01DX009 (ip), vehicle: Klucel (hydroxypropylcellulose) (HPC)) 117 % of control.

On to `Cc1cc(NC(=O)Nc2ccc(C3=NCCN3)cc2)ccc1NC(=O)Nc1ccc(C2=NCCN2)cc1`, for which the T/C was 100 % of control (dose: 100.0 mg/kg/injection, schedule: Q04DX003 (ip), vehicle: saline); 104 % of control (dose: 200.0 mg/kg/injection, schedule: Q04DX003 (ip), vehicle: saline); 109 % of control (dose: 400.0 mg/kg/injection, schedule: Q04DX003 (ip), vehicle: saline).

For `Cc1c2ccncc2c(C)c2c1[nH]c1ccc(-c3ccccc3)cc12`, the T/C is 102 % of control (dose: 20.0 mg/kg/injection, schedule: Q01DX001 (ip), vehicle: saline with Tween-80); 100 % of control (dose: 40.0 mg/kg/injection, schedule: Q01DX001 (ip), vehicle: saline with Tween-80); 99 % of control (dose: 80.0 mg/kg/injection, schedule: Q01DX001 (ip), vehicle: saline with Tween-80).

Turning to `NC(N)=NCCC(Cl)C(=O)O` (stereo not drawn), the T/C is 101 % of control (dose: 50.0 mg/kg/injection, schedule: Q01DX005 (ip), vehicle: saline); 102 % of control (dose: 100.0 mg/kg/injection, schedule: Q01DX005 (ip), vehicle: saline); 97 % of control (dose: 200.0 mg/kg/injection, schedule: Q01DX005 (ip), vehicle: saline).

Turning to `Oc1ccccc1CNCc1ccccc1O`, the T/C by setting is: (dose: 12.5 mg/kg/injection, schedule: Q01DX009 (ip), vehicle: saline with Tween-80) 100 % of control; (dose: 25.0 mg/kg/injection, schedule: Q01DX009 (ip), vehicle: saline with Tween-80) 100 % of control; under setting [1], 108 % of control; under setting [2], 98 % of control.

For `[Cl][Pt+2][Cl].[NH-]c1ccccc1[NH-]`, the T/C reads like this: (dose: 6.25 mg/kg/injection, schedule: Q04DX002 (ip), vehicle: saline with Tween-80) 163 % of control; (dose: 12.5 mg/kg/injection, schedule: Q04DX002 (ip), vehicle: saline with Tween-80) 193 % of control; (dose: 12.5 mg/kg/injection, schedule: Q04DX002 (ip), vehicle: saline) 167 % of control; (dose: 25.0 mg/kg/injection, schedule: Q04DX002 (ip), vehicle: saline with Tween-80) 110 % of control.

In the case of `CC(O)CN(CCN(CC(C)O)CC(C)O)CC(C)O.[Cl-].[Co+2]` (stereo not drawn), the T/C is 108 % of control and 111 % of control (dose: 12.5 mg/kg/injection, schedule: Q01DX009 (ip), vehicle: saline); 107 % of control and 110 % of control (dose: 25.0 mg/kg/injection, schedule: Q01DX009 (ip), vehicle: saline); 111 % of control and 112 % of control and 119 % of control under setting [5]; 123 % of control and 92 % of control under setting [6].

Regarding `CN(OC(=O)C(C)(C)C)C(=O)C(C)(C)C`, the T/C reads like this: under setting [7], 106 % of control; under setting [8], 105 % of control; (dose: 400.0 mg/kg/injection, schedule: Q01DX005 (ip), vehicle: saline with Tween-80) 108 % of control.

As to `COC1(OC)C=NNc2ncnn21`, the T/C is 103 % of control (dose: 60.0 mg/kg/injection, schedule: Q01DX005 (ip), vehicle: saline); 104 % of control (dose: 120.0 mg/kg/injection, schedule: Q01DX005 (ip), vehicle: saline); 105 % of control (dose: 240.0 mg/kg/injection, schedule: Q01DX005 (ip), vehicle: saline).

Turning to `CCSC(=Nc1nc2ccc(NC(C)=O)cc2s1)SCC`, the T/C reads like this: (dose: 6.25 mg/kg/injection, schedule: Q01DX009 (ip), vehicle: Klucel (hydroxypropylcellulose) (HPC)) 97 % of control; under setting [3], 101 % of control; under setting [4], 98 % of control.

Consider `COC(=O)C1=COC(C)C2CN3CCC4(C(=O)Nc5ccccc54)C3CC12` (stereo not drawn), for which the T/C was 101 % of control under setting [9] and 101 % of control under setting [10].

Regarding `O=c1oc2c(cc1Cl)CCc1ccccc1-2`, the T/C runs as follows: under setting [11], 104 % of control; under setting [7], 102 % of control; under setting [8], 97 % of control.

In the case of `O=C(CCCCCO)c1nc2ccccc2s1`, the T/C (dose: 60.0 mg/kg/injection, schedule: Q01DX005 (ip), vehicle: Klucel (hydroxypropylcellulose) (HPC)) was 100 % of control; the T/C (dose: 120.0 mg/kg/injection, schedule: Q01DX005 (ip), vehicle: Klucel (hydroxypropylcellulose) (HPC)) was 102 % of control; the T/C (dose: 240.0 mg/kg/injection, schedule: Q01DX005 (ip), vehicle: Klucel (hydroxypropylcellulose) (HPC)) was 94 % of control.

Turning to `CN(C)c1ccc(/C=C(\NC(=O)c2ccccc2)c2nc3ccccc3s2)cc1`, the T/C under setting [9] was 105 % of control, the T/C under setting [10] was 116 % of control and the T/C under setting [8] was 106 % of control.

Turning to `CN(C)c1ccc2c(N(C)C)cc(N(C)C)[n+](C)c2c1`, the T/C is 106 % of control (dose: 0.78 mg/kg/injection, schedule: Q01DX009 (ip), vehicle: distilled water + Tween-80 + alcohol) and 115 % of control (dose: 1.56 mg/kg/injection, schedule: Q01DX009 (ip), vehicle: distilled water + Tween-80 + alcohol).

As for `Cc1cccc(C)c1NC(=O)C(=O)/C(=C(\N)c1ccccc1)c1ccccc1`, the T/C under setting [11] is 101 % of control, the T/C under setting [7] is 94 % of control and the T/C under setting [8] was 90 % of control.

For the compound `CO[C@H]1[C@H]2OC(C)(C)O[C@H]2O[C@H]1/C=C1\CC(=O)NC1=O`, the T/C runs as follows: under setting [5], 111 % of control; (dose: 50.0 mg/kg/injection, schedule: Q01DX009 (ip), vehicle: suspension in saline) 96 % of control; under setting [6], 116 % of control; (dose: 100.0 mg/kg/injection, schedule: Q01DX009 (ip), vehicle: suspension in saline) 104 % of control; (dose: 200.0 mg/kg/injection, schedule: Q01DX009 (ip), vehicle: suspension in saline) 110 % of control.
